Test in all cases: PubChem AID 504934
The target of test [1] is Retinoic acid receptor RXR-alpha (Homo sapiens) (UniProt P19793). To be noted: nuclear receptor panel Gal4 luciferase reporter, RXRa, at 10 µM. (In a reporter assay the amount or activity of a reporter protein is the signal.)
The test system of a further test is TR2. The conditions noted are these: nuclear receptor panel Gal4 luciferase reporter, at 10 µM.
Test [2] concerns the target Nuclear receptor subfamily 1 group I member 2 (Homo sapiens) (UniProt O75469). To be noted: nuclear receptor panel Gal4 luciferase reporter, PXR, at 10 µM.
In test [3] the target is COUP transcription factor 2 (Homo sapiens) (UniProt P24468). The conditions noted are these: nuclear receptor panel Gal4 luciferase reporter, Coup-TF2, at 10 µM.

The structures appear in SMILES notation. The source made the active and inactive calls. The rule behind the calls is not given here.

The record followed here is PubChem BioAssay AID504934 (The Scripps Research Institute Molecular Screening Center, 2011).

COUP transcription factor 2 (Homo sapiens), sequence (P24468 whole entry, looked up, the tested form may be a part): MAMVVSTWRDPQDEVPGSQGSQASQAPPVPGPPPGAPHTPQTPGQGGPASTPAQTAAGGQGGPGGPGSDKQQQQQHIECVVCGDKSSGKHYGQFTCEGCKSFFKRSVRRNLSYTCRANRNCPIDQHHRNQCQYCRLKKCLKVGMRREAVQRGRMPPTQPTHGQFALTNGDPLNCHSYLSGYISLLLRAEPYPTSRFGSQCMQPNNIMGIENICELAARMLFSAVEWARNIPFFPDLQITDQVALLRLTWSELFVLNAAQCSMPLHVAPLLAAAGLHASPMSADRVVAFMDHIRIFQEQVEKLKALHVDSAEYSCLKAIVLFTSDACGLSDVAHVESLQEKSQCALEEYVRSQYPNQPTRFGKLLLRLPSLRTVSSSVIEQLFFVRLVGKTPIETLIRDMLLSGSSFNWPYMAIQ
Nuclear receptor subfamily 1 group I member 2 (Homo sapiens), sequence (O75469 whole entry, looked up, the tested form may be a part): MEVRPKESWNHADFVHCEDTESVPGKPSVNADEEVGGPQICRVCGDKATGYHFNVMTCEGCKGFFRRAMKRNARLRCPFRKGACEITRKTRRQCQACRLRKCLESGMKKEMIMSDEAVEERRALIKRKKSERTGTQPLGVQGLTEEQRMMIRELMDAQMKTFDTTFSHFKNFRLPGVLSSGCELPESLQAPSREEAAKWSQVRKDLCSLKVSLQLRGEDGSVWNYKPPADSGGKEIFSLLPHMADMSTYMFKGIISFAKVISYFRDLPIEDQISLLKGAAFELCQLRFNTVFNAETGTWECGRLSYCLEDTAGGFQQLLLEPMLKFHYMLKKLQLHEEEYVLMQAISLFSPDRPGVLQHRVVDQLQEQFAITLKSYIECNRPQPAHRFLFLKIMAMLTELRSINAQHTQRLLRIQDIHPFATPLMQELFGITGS
Retinoic acid receptor RXR-alpha (Homo sapiens), sequence (P19793 whole entry, looked up, the tested form may be a part): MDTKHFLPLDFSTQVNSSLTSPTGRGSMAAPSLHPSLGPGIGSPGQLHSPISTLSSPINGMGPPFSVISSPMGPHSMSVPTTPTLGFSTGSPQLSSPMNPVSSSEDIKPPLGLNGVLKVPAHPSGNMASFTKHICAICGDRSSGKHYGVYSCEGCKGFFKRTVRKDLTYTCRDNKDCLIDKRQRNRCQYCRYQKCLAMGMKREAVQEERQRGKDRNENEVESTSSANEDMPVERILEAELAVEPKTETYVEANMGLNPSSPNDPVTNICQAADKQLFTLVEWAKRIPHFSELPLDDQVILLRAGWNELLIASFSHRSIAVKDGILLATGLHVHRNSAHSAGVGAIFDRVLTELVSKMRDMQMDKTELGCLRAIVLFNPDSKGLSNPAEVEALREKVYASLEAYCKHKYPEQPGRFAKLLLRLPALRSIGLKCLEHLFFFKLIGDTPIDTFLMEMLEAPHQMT

For the molecule `O=c1cc(N2CCN(c3cccc(Cl)c3)CC2)[nH]c(=O)n1C1CCCCC1`, the fold change in test [1] was 0.75; with TR2, 0.63; in test [2], 1.26; in test [3] it was 1.04 (inactive).
